Laboratory results reported in ChEMBL document CHEMBL1201862, “PubChem BioAssay data set” (2004).
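How tested: cells in 96-well plates exposed to compound for 48 hours at five concentrations. The concentration for 50% growth inhibition is given as GI50.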 Active and inactive are the calls of the source. Cut-off read from the data, not from the text of the source: active = GI50 up to about 1.1 µM and inactive = higher.

What was measured:
Assay in all cases: inhibition of tumour cell growth, NCI panel, 48 h
A549 = system: A549
COLO 205 = system: COLO 205
HCT-15 = system: HCT-15
HL-60 = system: HL-60
HT-29 = system: HT-29
Hs-578T = system: Hs-578T
LOX IMVI = system: LOX IMVI
MDA-MB-435 = system: MDA-MB-435
NCI-H23 = system: NCI-H23
NCI-H460 = system: NCI-H460
PC-3 = system: PC-3
SF-539 = system: SF-539
SK-MEL-28 = system: SK-MEL-28
SK-OV-3 = system: SK-OV-3
SN12C = system: SN12C
SR = system: SR
SW-620 = system: SW-620
T47D = system: T47D
UO-31 = system: UO-31

SMILES	GI50 (A549)	GI50 (COLO 205)	GI50 (HCT-15)	GI50 (HL-60)	GI50 (HT-29)	GI50 (Hs-578T)	GI50 (LOX IMVI)	GI50 (MDA-MB-435)	GI50 (NCI-H23)	GI50 (NCI-H460)	GI50 (PC-3)	GI50 (SF-539)	GI50 (SK-MEL-28)	GI50 (SK-OV-3)	GI50 (SN12C)	GI50 (SR)	GI50 (SW-620)	GI50 (T47D)	GI50 (UO-31)
Cc1ncc(-c2nnnn2-c2ccccc2)c(C(=O)O)n1	> 100 µM (inactive)	> 100 µM (inactive)	> 100 µM	> 100 µM (inactive)	> 100 µM (inactive)	> 100 µM (inactive)	> 100 µM (inactive)	> 100 µM (inactive)	> 100 µM (inactive)	> 100 µM (inactive)	> 100 µM (inactive)	> 100 µM (inactive)	> 100 µM (inactive)	> 100 µM (inactive)	> 100 µM (inactive)	> 100 µM (inactive)	> 100 µM (inactive)	> 100 µM (inactive)	> 100 µM (inactive)
CCN(CC)P1(=S)Oc2ccc3ccccc3c2-c2c(ccc3ccccc23)O1	> 100 µM (inactive)	> 100 µM (inactive)	63.4 µM	> 100 µM (inactive)	18.5 µM (inactive)	40.3 µM (inactive)	> 100 µM (inactive)	> 100 µM (inactive)	> 100 µM (inactive)	> 100 µM (inactive)	> 100 µM (inactive)	> 100 µM (inactive)	> 100 µM (inactive)	> 100 µM (inactive)	> 100 µM (inactive)	27.4 µM (inactive)	> 100 µM (inactive)	22.5 µM (inactive)	> 100 µM (inactive)
Cc1cc(NC(=O)NC(=O)c2ccccc2N)ccc1Oc1ncc(Br)cn1	0.0112 µM (active)	< 0.0104 µM (active)	< 0.0107 µM	< 0.01 µM (active)	< 0.0103 µM (active)	< 0.01 µM (active)	0.0139 µM (active)	< 0.01 µM (active)	0.0125 µM (active)	< 0.0112 µM (active)	< 0.01 µM (active)	< 0.011 µM (active)	< 0.01 µM (active)	0.0103 µM (active)	0.0583 µM (active)	< 0.0631 µM (active)	< 0.0103 µM (active)	0.359 µM (active)	0.0535 µM (active)
CCCCCc1c(Cl)nc(Cl)nc1Cl	39.7 µM (inactive)	7.85 µM (inactive)	6.17 µM	2.42 µM (inactive)	3.59 µM (inactive)	43.3 µM (inactive)	0.471 µM (active)	2.76 µM (inactive)	3.18 µM (inactive)	19.5 µM (inactive)	8.99 µM (inactive)	16 µM (inactive)	16.5 µM (inactive)	10.5 µM (inactive)	3.1 µM (inactive)	0.157 µM (active)	3.63 µM (inactive)	19.4 µM (inactive)	18.5 µM (inactive)
COc1ccc(CCNC(=O)Cc2ccccc2CO)cc1OC	> 100 µM (inactive)	> 100 µM (inactive)	> 100 µM	> 100 µM (inactive)	> 100 µM (inactive)	> 100 µM (inactive)	> 100 µM (inactive)	> 100 µM (inactive)	> 100 µM (inactive)	> 100 µM (inactive)	> 100 µM (inactive)	> 100 µM (inactive)	> 100 µM (inactive)	> 100 µM (inactive)	> 100 µM (inactive)	> 100 µM (inactive)	> 100 µM (inactive)	> 100 µM (inactive)	> 100 µM (inactive)
CC(=O)O[C@@H]1C[C@]2(C(=O)c3ccccc3)C(=O)C(=O)S[C@]12c1ccccc1	55.8 µM (inactive)	38.3 µM (inactive)	32.9 µM	0.225 µM (active)	67.9 µM (inactive)	39.5 µM (inactive)	34.3 µM (inactive)	29.2 µM (inactive)	45 µM (inactive)	45.6 µM (inactive)	36.5 µM (inactive)	24.2 µM (inactive)	58.3 µM (inactive)	50 µM (inactive)	35.8 µM (inactive)	32.9 µM (inactive)	31.6 µM (inactive)	28.3 µM (inactive)	42.8 µM (inactive)
N#CC(C#N)[C@@H]1CCC=C(Sc2ccccc2)[C@H]1Sc1ccccc1	3.28 µM (inactive)	2.2 µM (inactive)	2.4 µM	2.01 µM (inactive)	3.87 µM (inactive)	5.16 µM (inactive)	2.46 µM (inactive)	1.26 µM (inactive)	3.96 µM (inactive)	3.56 µM (inactive)	3.86 µM (inactive)	2 µM (inactive)	2.72 µM (inactive)	4.54 µM (inactive)	2.8 µM (inactive)	1.97 µM (inactive)	2.42 µM (inactive)	1.45 µM (inactive)	5.31 µM (inactive)
Cc1nc(NC(C)(CO)CO)nc(N/N=C/c2ccc(Cl)cc2)c1C(=O)Nc1ccc(Cl)cc1	77.3 µM (inactive)	> 100 µM (inactive)	> 100 µM	> 100 µM (inactive)	> 100 µM (inactive)	> 100 µM (inactive)	> 100 µM (inactive)	> 100 µM (inactive)	> 100 µM (inactive)	> 100 µM (inactive)	> 100 µM (inactive)	> 100 µM (inactive)	> 100 µM (inactive)	> 100 µM (inactive)	> 100 µM (inactive)	> 10 µM (inactive)	> 100 µM (inactive)	> 100 µM (inactive)	> 100 µM (inactive)
